# Literature values, collected in patent US8877445B2, “Methods for identification of tumor phenotype and treatment” (Intelligent Oncotherapeutics, Inc., priority 2008, dated 2014).
# Where no end group is shown, it is not given here. [ ]: non-standard residue; d: D form.
# Columns and labels:
# [1] = tested on: patients
# [2] = tested on: patients; conditions: clinical phase I trial
# [3] = tested on: melanoma cells; conditions: in vitro (Ghosh et al. 2005)
# [4] = tested on: cultured human tumor cells
# [5] = tested on: subcutaneous human tumor xenografts; conditions: for mitotic accumulation and apoptosis in xenografts / tolerability of efficacious doses: mouse, in vivo; for tolerability of efficacious doses: po; for tumor growth: oral administration (MLN8237: repeated) at well tolerated doses
# [6] = target: T1, Aurora A (Homo sapiens, UniProt O14965); conditions: in vitro
# [7] = target: T1, Aurora A; conditions: cultured cells
# [8] = in vivo
# [9] = target: aurora B (Homo sapiens, UniProt Q96GD4); conditions: at efficacious concentrations
# [10] = tested on: cells; conditions: reviewed in Agnese et al. 2007
# [11] = tested on: human tumor types; conditions: in vivo, wide range of human tumor types (Pan et al. 2008)
# [12] = tested on: leukemia, colon and pancreatic tumors
# [13] = tested on: patients; conditions: phase I; dose levels well below those which cause dose-limiting toxicity (ASCO 2008 abstract #3009)
# [14] = tested on: solid tumors
# [15] = target: T2, FOXM1 (Homo sapiens, UniProt Q08050)
# T2 sequence (Q08050 1-763): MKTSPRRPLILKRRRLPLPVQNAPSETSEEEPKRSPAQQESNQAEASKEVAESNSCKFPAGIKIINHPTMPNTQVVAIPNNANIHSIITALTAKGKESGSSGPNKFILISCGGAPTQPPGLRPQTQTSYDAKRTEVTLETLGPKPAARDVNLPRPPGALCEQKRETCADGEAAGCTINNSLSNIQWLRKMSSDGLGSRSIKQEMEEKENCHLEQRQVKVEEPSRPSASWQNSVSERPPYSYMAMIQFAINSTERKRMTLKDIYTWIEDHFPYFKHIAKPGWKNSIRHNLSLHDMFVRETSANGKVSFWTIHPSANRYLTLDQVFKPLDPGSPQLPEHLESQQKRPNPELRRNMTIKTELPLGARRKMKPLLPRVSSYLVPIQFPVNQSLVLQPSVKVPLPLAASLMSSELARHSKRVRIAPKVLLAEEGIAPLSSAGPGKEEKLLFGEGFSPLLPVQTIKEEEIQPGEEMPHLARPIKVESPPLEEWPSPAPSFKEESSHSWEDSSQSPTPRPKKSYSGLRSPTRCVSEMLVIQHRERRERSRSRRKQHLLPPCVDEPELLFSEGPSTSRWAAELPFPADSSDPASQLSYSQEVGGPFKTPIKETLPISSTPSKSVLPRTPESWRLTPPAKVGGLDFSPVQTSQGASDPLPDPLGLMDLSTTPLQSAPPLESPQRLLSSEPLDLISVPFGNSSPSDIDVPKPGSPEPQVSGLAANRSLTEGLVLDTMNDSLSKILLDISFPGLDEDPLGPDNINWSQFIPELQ
# T1 sequence (O14965 whole entry): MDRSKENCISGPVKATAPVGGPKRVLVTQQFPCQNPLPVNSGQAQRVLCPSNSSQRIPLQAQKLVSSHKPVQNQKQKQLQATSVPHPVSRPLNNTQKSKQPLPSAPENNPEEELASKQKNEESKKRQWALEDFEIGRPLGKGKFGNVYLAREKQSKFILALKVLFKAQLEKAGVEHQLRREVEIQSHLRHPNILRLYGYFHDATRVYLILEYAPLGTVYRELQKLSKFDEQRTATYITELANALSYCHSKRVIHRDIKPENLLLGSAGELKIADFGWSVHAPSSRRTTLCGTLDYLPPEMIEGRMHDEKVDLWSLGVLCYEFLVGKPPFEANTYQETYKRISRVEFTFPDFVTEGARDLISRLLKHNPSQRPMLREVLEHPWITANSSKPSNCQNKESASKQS
# aurora B, sequence (Q96GD4 whole entry): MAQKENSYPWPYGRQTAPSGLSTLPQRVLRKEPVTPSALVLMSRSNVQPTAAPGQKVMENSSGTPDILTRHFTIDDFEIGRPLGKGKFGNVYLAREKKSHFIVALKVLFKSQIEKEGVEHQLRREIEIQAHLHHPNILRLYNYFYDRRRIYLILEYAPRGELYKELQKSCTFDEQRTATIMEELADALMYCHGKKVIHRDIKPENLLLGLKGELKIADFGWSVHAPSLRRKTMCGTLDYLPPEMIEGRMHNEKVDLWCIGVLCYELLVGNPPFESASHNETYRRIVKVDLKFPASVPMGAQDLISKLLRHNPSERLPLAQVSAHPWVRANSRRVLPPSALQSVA
compound,measurement,setting,value
CCN(CCCOc1ccc2c(Nc3cc(CC(=O)Nc4cccc(F)c4)n[nH]3)ncnc2c1)CCOP(=O)(O)O [AD1152],toxicity,[1]; phase I,neutropenia as the only significant toxicity
same,patients with significant disease stabilization,[1]; phase I (ASCO 2008 abstract #3008),5 of 12
Cc1cc(Nc2ncc(F)c(NC3C4C=CC(C4)C3C(N)=O)n2)ccc1N1CCN(C)CC1 (stereo not shown) [AS703569],toxicities,[2],tolerable toxicities
C=CCc1ccc(O)c(OC)c1 [Eugenol],E2F1 targeting and killing of melanoma cells,[3],target E2F1 and kill melanoma cells
O=C(O)c1ccc(Nc2ncc3c(n2)-c2ccc(Cl)cc2C(c2c(F)cccc2F)=NC3)cc1 [MLN8054],toxicities,[2],tolerable toxicities
same,effects on cultured human tumor cells,[4],G2/M accumulation and spindle defects and inhibits proliferation
same,duration of tumor growth inhibition,[5]; after end of treatment,sustained after discontinuing MLN8054 treatment
same,mitotic accumulation and apoptosis in xenografts,[5],induced mitotic accumulation and apoptosis
same,tolerability of efficacious doses,[5],well tolerated doses
same,tumor growth,[5],dramatically inhibited
same,Aurora A kinase activity,[6],inhibits recombinant Aurora A kinase activity
same,selectivity Aurora A over Aurora B,[7],selective for Aurora A over the family member Aurora B
COc1cc(Nc2ncc3c(n2)-c2ccc(Cl)cc2C(c2c(F)cccc2OC)=NC3)ccc1C(=O)O [MLN8237],effects on cultured human tumor cells,[4],"mitotic spindle abnormalities, mitotic accumulation, inhibition of cell proliferation and apoptosis"
same,pharmacokinetic profile,[8],favorable pharmacokinetic profile
same,oral bioavailability,[8]; po,orally bioavailable
same,aurora B inhibition,[9],did not appreciably inhibit aurora B
same,mitotic accumulation and apoptosis in xenografts,[5],induced mitotic accumulation and apoptosis
same,tolerability of efficacious doses,[5],well tolerated doses
same,tumor growth,[5],dramatic tumor growth inhibition in all tumor models evaluated
same,accumulation of mitotic cells,[5]; single oral administration,time dependent accumulation of mitotic cells
CC(=O)NCC(=O)N1[C@@H]2CC[C@H]1c1ccc(Nc3ncc(C(F)(F)F)c(NC4CCC4)n3)cc12 [PF-03814735],toxicities,[2],tolerable toxicities
CO[C@@H](C(=O)N1Cc2n[nH]c(NC(=O)c3ccc(N4CCN(C)CC4)cc3)c2C1)c1ccccc1 [PHA-739358],toxicities,[2],tolerable toxicities
O=C(Nc1cccc(Cl)c1)Nc1ncc(CCNc2ncnc3ccsc23)s1 [SNS-314],toxicities,[2],tolerable toxicities
Cc1cc(Nc2cc(N3CCN(C)CC3)nc(Sc3ccc(NC(=O)C4CC4)cc3)n2)[nH]n1 [VX-680],"effect on cell proliferation, spindle formation, DNA copies, cell death",[10],"block cell proliferation, disrupt bipolar spindle formation, and lead to accumulation of cells with 4N or greater numbers of chromosomal DNA copies and eventual cell death"
same,cell-cycle progression and apoptosis,[11],blocks cell-cycle progression and induces apoptosis
same,tolerability of efficacious doses,[12]; xenograft models,well-tolerated doses
same,tumor regression,[12]; xenograft models,"regression of leukemia, colon and pancreatic tumors"
same,tumor growth,[12]; xenograft models (Harrington et al. 2004),substantial inhibition of tumor growth
same,patients who achieved stable disease,[13],three of 16
COCC[n+]1c2c(n(Cc3cnccn3)c1C)C(=O)c1ccccc1C2=O.[Br-] [YM155],toxicity,[14]; phase I,tolerable toxicity
same,clinical activity,"[14]; phase I (2008 abstracts #3536, 5135, 8538)",clinical activity in solid tumors
COc1cc2c(Nc3ccc(NC(=O)c4ccccc4)cc3)ncnc2cc1OCCCN1CCOCC1 [ZM 447439],toxicities,[2],tolerable toxicities
"(D-Arg)9-p19ARF 26-44: small peptide that blocks FOXM1; rrrrrrrrrrKFVRSRRPRTAS-CALAFVN containing nine D-Arg residues at the amino terminus ([dR][dR][dR][dR][dR][dR][dR][dR][dR]KFVRSRRPRTASCALAFVN; not fully specified; printed as rrrrrrrrrrKFVRSRRPRTAS-CALAFVN; UniProt Q64364 26-44, looked up, fragment)",action on FOXM1,[15]; Gusarova et al. 2007,blocks FOXM1
same,effects in vitro and in vivo,[15]; both in vitro and in vivo,"growth inhibition, reduction in levels of survivin, aurora B kinase, and PLK1 as well as inducing apoptosis"
